The structures appear in SMILES notation. Values joined by “and” are separate entries in the source; they are usually repeats but may differ in a detail not shown here. Equal entries are not always repeated.

The subject of assay [1] is 8226. Briefly: GI50 (MM cell) 8226. Format: cell-based.
The subject of assay [2] is OPM2. Briefly: GI50 (MM cell) OPM2. Format: cell-based. The note with it: Homo sapiens, OPM-2.
Assay [3] has as its target T1, ULK3 (Homo sapiens, UniProt Q6PHR2).
T1 sequence (Q6PHR2 1-472): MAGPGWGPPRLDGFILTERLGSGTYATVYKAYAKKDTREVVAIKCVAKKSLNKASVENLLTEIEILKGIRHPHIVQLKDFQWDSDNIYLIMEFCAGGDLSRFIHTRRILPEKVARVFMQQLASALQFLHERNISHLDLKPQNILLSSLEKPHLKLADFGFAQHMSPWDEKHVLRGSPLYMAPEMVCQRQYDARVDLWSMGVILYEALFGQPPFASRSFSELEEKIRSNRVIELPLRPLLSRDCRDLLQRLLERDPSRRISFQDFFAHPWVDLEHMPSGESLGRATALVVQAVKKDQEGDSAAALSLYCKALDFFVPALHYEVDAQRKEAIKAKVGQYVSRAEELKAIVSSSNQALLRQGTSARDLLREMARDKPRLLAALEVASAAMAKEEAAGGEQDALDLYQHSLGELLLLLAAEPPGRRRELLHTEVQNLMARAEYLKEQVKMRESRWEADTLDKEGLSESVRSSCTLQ
Put plainly: IC50 for ULK3, Reaction Biology kinase assay (32P Hotspot assay). In kind it is biochemical.

Assay [4] addresses T2, JAK2 (Homo sapiens, UniProt O60674). Briefly: IC50 for JAK2, Reaction Biology kinase assay (32P Hotspot assay). Format: biochemical.
The test system of assay [5] is U266. Put plainly: GI50 (MM cell) U266. In kind it is cell-based. The note with it: Homo sapiens, U-266.
Assay [6] deals with U266 PSR. Briefly: GI50 (MM cell) U266 PSR. Format: cell-based. To be noted: Homo sapiens, U-266.
Assay [7] deals with 8226 B25. Briefly: GI50 (MM cell) 8226 B25. In kind it is cell-based.
Assay [8] addresses T1, ULK3. Briefly: DSF (ULK3) thermal shift. In kind it is binding.
The target in assay [9] is T2, JAK2. Put plainly: DSF (JAK2) thermal shift. Format: binding.

T2 sequence (O60674 whole entry): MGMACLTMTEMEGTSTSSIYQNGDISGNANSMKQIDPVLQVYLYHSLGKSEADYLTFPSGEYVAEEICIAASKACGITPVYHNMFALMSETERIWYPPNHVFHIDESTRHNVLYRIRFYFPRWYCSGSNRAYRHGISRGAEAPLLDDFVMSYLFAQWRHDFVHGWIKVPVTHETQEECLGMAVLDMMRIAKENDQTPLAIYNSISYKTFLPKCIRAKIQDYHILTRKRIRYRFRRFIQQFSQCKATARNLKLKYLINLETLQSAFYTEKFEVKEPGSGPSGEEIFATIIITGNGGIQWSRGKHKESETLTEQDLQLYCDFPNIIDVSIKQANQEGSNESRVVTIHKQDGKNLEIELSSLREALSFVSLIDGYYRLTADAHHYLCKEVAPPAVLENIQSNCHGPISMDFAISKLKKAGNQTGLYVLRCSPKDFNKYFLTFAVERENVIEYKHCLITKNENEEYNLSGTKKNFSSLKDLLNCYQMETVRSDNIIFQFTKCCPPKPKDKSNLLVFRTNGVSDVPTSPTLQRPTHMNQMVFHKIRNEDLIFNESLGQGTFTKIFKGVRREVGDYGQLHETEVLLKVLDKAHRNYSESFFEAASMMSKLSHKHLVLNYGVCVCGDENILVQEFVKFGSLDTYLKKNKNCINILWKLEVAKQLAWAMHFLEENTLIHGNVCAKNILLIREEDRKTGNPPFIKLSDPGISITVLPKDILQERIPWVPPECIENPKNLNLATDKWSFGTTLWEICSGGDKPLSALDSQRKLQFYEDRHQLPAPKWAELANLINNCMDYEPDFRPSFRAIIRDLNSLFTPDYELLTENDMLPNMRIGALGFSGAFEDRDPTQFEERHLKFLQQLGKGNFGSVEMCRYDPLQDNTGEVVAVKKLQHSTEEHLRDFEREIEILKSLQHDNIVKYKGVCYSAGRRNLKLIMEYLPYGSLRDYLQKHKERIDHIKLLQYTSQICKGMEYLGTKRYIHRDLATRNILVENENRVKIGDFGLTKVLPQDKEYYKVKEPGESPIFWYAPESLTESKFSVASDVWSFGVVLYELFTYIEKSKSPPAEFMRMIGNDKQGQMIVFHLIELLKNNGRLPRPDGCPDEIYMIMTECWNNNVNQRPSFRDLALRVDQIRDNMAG

As to `CC(NC(=O)c1ccc(-c2ccnc(Nc3ccc(N4CCOCC4)cc3)n2)cc1)C(F)(F)F` (racemic) [SR8-170, (RS)-4-(2-((4-Morpholinophenyl)amino)pyrimidin-4-yl)-N-(1,1,1-trifluoropropan-2-yl)benzamide], the 50% growth inhibitory concentration (GI50) (usually the concentration at which growth is held to half of that of the control) in [1] was determined as 290 nM; in assay [2] it was 6700 nM; in assay [5], 210 nM; in assay [6] it was 1580 nM; in [7] it was 404 nM. Moreover, the IC50 (as a rule, the point on the concentration scale where inhibition reaches its midpoint) in [3] is 8.71 nM; in assay [4], 1.31 nM. Also, in assay [8], the “DSF (ULK3) ΔTm (° C.)” value was 14.3 °C and 14.4 °C.
Regarding `CC(C)(C)[C@@H](CO)NC(=O)c1ccc(-c2ccnc(Nc3ccc(N4CCOCC4)cc3)n2)cc1` [BH1-062, (S)—N-(1-Hydroxy-3,3-dimethylbutan-2-yl)-4-(2-((4-morpholinophenyl)amino)pyrimidin-4-yl)benzamide], the IC50 in assay [4] was found to be 12.9 nM. For the same molecule, the “DSF (JAK2) ΔTm (° C.)” value in assay [9] amounted to 1.0 °C.
For `COc1cc(N2CCOCC2)ccc1Nc1nccc(-c2ccc(C(=O)NCC(F)(F)F)cc2)n1` [BH1-132, 4-(2-((2-Methoxy-4-morpholinophenyl)amino)pyrimidin-4-yl)-N-(2,2,2-trifluoroethyl)benzamide], in assay [8], the “DSF (ULK3) ΔTm (° C.)” value is 10.0 °C. The “DSF (JAK2) ΔTm (° C.)” value in assay [9] is 0.1 °C.
In turn, `Cc1cnc(Nc2ccc(N3CCOCC3)cc2)nc1Nc1ccc(Cl)c(NS(=O)(=O)C(C)(C)C)c1` [BH1-150] came in with an IC50 in [4] of 1.25 nM. The “DSF (ULK3) ΔTm (° C.)” value in [8] was determined as 15.0 °C. Moreover, in assay [9], the “DSF (JAK2) ΔTm (° C.)” value stood at 2.1 °C.
Molecule `C[C@@H](NC(=O)c1ccc(-c2ccnc(Nc3ccc(N4CCOCC4)cc3)n2)cc1)C(F)(F)F` [BH1-151, (R)-4-(2-((4-Morpholinophenyl)amino)pyrimidin-4-yl)-N-(1,1,1-trifluoropropan-2-yl)benzamide] yielded an IC50 in assay [4] of 1.13 nM. Besides, the “DSF (ULK3) ΔTm (° C.)” value in assay [8] is 14.0 °C. Also, in assay [9], the “DSF (JAK2) ΔTm (° C.)” value worked out at 0.4 °C.
For `C[C@H](NC(=O)c1ccc(-c2ccnc(Nc3ccc(N4CCOCC4)cc3)n2)cc1)C(F)(F)F` [BH1-152, (S)-4-(2-((4-Morpholinophenyl)amino)pyrimidin-4-yl)-N-(1,1,1-trifluoropropan-2-yl)benzamide], in that order: 0.746 nM, 12.5 °C and 0.7 °C.
In turn, `O=C(c1ccc(-c2ccnc(Nc3ccc(N4CCOCC4)cc3)n2)cc1)N1CCC[C@H]1C(F)(F)F` [BH1-159, (S)-(4-(2-((4-Morpholinophenyl)amino)pyrimidin-4-yl)phenyl) (2-(trifluoromethyl)pyrrolidin-1-yl) methanone] showed an IC50 in assay [4] of 74.2 nM. Moreover, the “DSF (JAK2) ΔTm (° C.)” value in [9] was found to be 1.1 °C.
On the same counts, the results for `O=C(c1ccc(-c2ccnc(Nc3ccc(N4CCOCC4)cc3)n2)cc1)N1CCC[C@@H]1C(F)(F)F` [BH1-160, (R)-(4-(2-((4-Morpholinophenyl)amino)pyrimidin-4-yl)phenyl) (2-(trifluoromethyl)pyrrolidin-1-yl) methanone] are 8.56 nM and 1.4 °C.
On to `N#CCNC(=O)c1ccc(-c2ncnc3[nH]ccc23)cc1` [BL4-136], for which the “DSF (ULK3) ΔTm (° C.)” value in assay [8] was determined as 5.1 °C. In addition, the “DSF (JAK2) ΔTm (° C.)” value in assay [9] turned out to be 1 °C.
Consider `N#CCNC(=O)c1ccc(-c2nc(Nc3ccc(N4CCOCC4)cc3)nc3[nH]ccc23)cc1` [BL4-139], for which the half-inhibitory concentration (IC50) in [4] was under 0.51 nM. Also, the “DSF (ULK3) ΔTm (° C.)” value in assay [8] turned out to be 15.0 °C.
Turning to `O=C(NC(CO)Cc1ccccc1)c1ccc(-c2ccnc(Nc3ccc(N4CCOCC4)cc3)n2)cc1` (centres unmarked) [BR1-008], the IC50 in [3] was found to be 2280 nM. Further, the “DSF (JAK2) ΔTm (° C.)” value in [9] is 0.5 °C.
Consider `COC[C@H](Cc1ccccc1)NC(=O)c1ccc(-c2ccnc(Nc3ccc(N4CCOCC4)cc3)n2)cc1` [BR1-012], for which the “DSF (ULK3) ΔTm (° C.)” value in assay [8] amounted to 5.8 °C. The “DSF (JAK2) ΔTm (° C.)” value in [9] is 0.1 °C.
On the same counts, the results for `Cc1cnc(Nc2ccc(N3CCOCC3=O)cc2)nc1-c1ccc(C(=O)NCC#N)cc1` [GM1-030, N-(Cyanomethyl)-4-(5-methyl-2-((4-(3-oxomorpholino)phenyl)amino)pyrimidin-4-yl)benzamide] are 8.1 °C and 5.5 °C.
On the same counts, the results for `N#CCNC(=O)c1ccc(-c2nc(Nc3ccc(N4CCOCC4=O)cc3)ncc2F)cc1` [GM1-036BA2, N-(Cyanomethyl)-4-(5-fluoro-2-((4-(3-oxomorpholino)phenyl)amino)pyrimidin-4-yl)benzamide] are 8.7 °C and 1.1 °C.
In the case of `N#CCNC(=O)c1ccc(-c2nc(Nc3ccc(N4CCOCC4)cc3)ncc2Cl)cc1` [GM1-048, 4-(5-Chloro-2-((4-morpholinophenyl)amino)pyrimidin-4-yl)-N-(cyanomethyl)benzamide], the “DSF (ULK3) ΔTm (° C.)” value in assay [8] is 11.0 °C and 13.1 °C. Further, the “DSF (JAK2) ΔTm (° C.)” value in [9] was determined as 6.48 °C.
As to `CN1CCC(c2ccc(Nc3ncc(F)c(-c4ccc(C(=O)NCC#N)cc4)n3)cc2F)CC1` [GM1-064, N-(Cyanomethyl)-4-(5-fluoro-2-((3-fluoro-4-(1-methylpiperidin-4-yl)phenyl)amino)pyrimidin-yl)benzamide], the “DSF (ULK3) ΔTm (° C.)” value in assay [8] amounted to 8.0 °C. In addition, in [9], the “DSF (JAK2) ΔTm (° C.)” value was found to be 3.68 °C.
On to `CN1CCN(Cc2ccc(Nc3nc(-c4ccc(C(=O)NCC#N)cc4)c4cc[nH]c4n3)cc2)CC1` [RF1-024, N-(Cyanomethyl)-4-(2-((4-((4-methylpiperazin-1-yl)methyl)phenyl)amino)-7H-pyrrolo[2,3-d]pyrimidin-4-yl)benzamide], for which the GI50 came to 3630 nM in assay [1]; 159 nM in assay [2]; 917 nM in assay [5]; 2580 nM in assay [6]; 9490 nM in assay [7]. This molecule showed a concentration for half-maximal inhibition (IC50) in assay [4] of under 0.508 nM.
As to `O=C(NCC(F)(F)F)c1ccc(-c2nc(Nc3ccc(N4CCOCC4)cc3)nc3[nH]ccc23)cc1` [RF1-046, 4-(2-((4-Morpholinophenyl)amino)-7H-pyrrolo[2,3-d]pyrimidin-4-yl)-N-(2,2,2-trifluoro-ethyl)benzamide], in assay [4], half-maximal inhibition (IC50) required 0.745 nM.
For the molecule `CN1CCC(c2cnc(Nc3nc(-c4ccc(C(=O)NCC(F)(F)F)cc4)c4cc[nH]c4n3)cc2F)CC1` [RF1-060, 4-(2-((4-Fluoro-5-(1-methylpiperidin-4-yl)pyridin-2-yl)amino)-7H-pyrrolo[2,3-d]pyrimidin-4-yl)-N-(2,2,2-trifluoroethyl)benzamide], the GI50 worked out at 12000 nM in assay [1]; 909 nM in [2]; 4600 nM in assay [5]; 870 nM in assay [6]; 2930 nM in [7]. Further, the “DSF (ULK3) ΔTm (° C.)” value in [8] came to 6.8 °C.
As for `O=C(NCC(F)(F)F)c1ccc(-c2ccnc(Nc3ccc(N4CCOCC4)cc3)n2)cc1` [SR8-169, 4-(2-((4-Morpholinophenyl)amino)pyrimidin-4-yl)-N-(2,2,2-trifluoroethyl)benzamide], the GI50 in assay [1] was 83.5 nM; in [2], 15.1 nM; in assay [5], 86.2 nM; in assay [6] it was 4410 nM; in assay [7], 214 nM. The results for the IC50 in [3] and in assay [4] were 10.3 nM and under 0.508 nM, respectively. Moreover, the “DSF (ULK3) ΔTm (° C.)” value in assay [8] was 15.0 °C and 11.7 °C and 14.7 °C.
